By IC50 is commonly meant the concentration at which inhibition is half-maximal.

Consider 23 molecules from patent US20250257041A1, “INDUCERS OF INTEGRATED STRESS RESPONSE TO TREAT CANCER” (The Board of Regents of The University of Texas System, priority 2022, published 2025).

For this assay, the system named is HCT116 WT. Kind of assay: Proliferation of HCT116 colorectal cell line, Cell TiterGlo. It is filed as cell-based, human. The conditions noted are these: 10-point dose response in triplicate, multiple values = separate independent experiments; for IC50: read-out: HCT116 IC50 (uM) HCT116 WT. In outline: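 Cell viability by CellTiter-Glo in parental HCT116, in a GCN2-knockout line, and in parental cells co-treated with ISRIB. IC50 from triplicate 10-point titrations; repeated values come from separate runs.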
For orientation: In ATP-based viability assays light output follows the ATP content of the culture.

Setting [1] is: Homo sapiens, HCT-116, wild type HCT116.

SMILES strings stand for the structures. Where two headings read alike, the source gives them in different places. A value given as a limit tells only on which side of the number the result lay.

Take `Cc1ncccc1C(=O)Nc1ccc(-c2cc(NC(=O)c3cccc(N(C)C)c3)n(C)n2)cc1` [SW394871, N-(4-(5-(3-(Dimethylamino)benzamido)-1-methyl-1H-pyrazol-3-yl)phenyl)-2-methylnicotine-amide]: under setting [1], the IC50 is 0.01 µM.

For `Cn1nc(-c2ccc(NC(=O)c3ccccc3Cl)cc2)cc1NC(=O)Nc1ccccc1` [SW394872, 2-Chloro-N-(4-(1-methyl-5-(3-phenylureido)-1H-pyrazol-3-yl)phenyl)benzamide], the IC50 under setting [1] was determined as 0.11 µM.

`Cn1nc(-c2ccc(NC(=O)c3ccccc3Cl)cc2)cc1NC(=O)N1CCOCC1` [SW394873, N-(3-(4-(2-Chlorobenzamido)phenyl)-1-methyl-1H-pyrazol-5-yl)morpholine-4-carboxamide]: the IC50 under setting [1] came to 0.29 µM.

Turning to `Cn1nc(-c2ccc(NC(=O)c3ccccc3Cl)cc2)cc1NC(=O)N1CCCCC1` [SW394874, N-(3-(4-(2-Chlorobenzamido)phenyl)-1-methyl-1H-pyrazol-5-yl)piperidine-1-carboxamide], the IC50 under setting [1] turned out to be 0.067 µM.

Take `CN1CCN(C(=O)Nc2cc(-c3ccc(NC(=O)c4ccccc4Cl)cc3)nn2C)CC1` [SW394875, N-(3-(4-(2-Chlorobenzamido)phenyl)-1-methyl-1H-pyrazol-5-yl)-4-methylpiperazine-1-carb-oxamide]: under “wild type HCT116”, the “HCT116 IC50 (uM) HCT116 WT” value is “inactive”.

Take `Cn1nc(-c2ccc(NC(=O)c3ccccc3Cl)cc2)cc1NC(=O)N1CCCC1` [SW394876, N-(3-(4-(2-Chlorobenzamido)phenyl)-1-methyl-1H-pyrazol-5-yl)pyrrolidine-1-carboxamide]: the IC50 under setting [1] worked out at 0.19 µM.

Consider `CC(=O)N1CCN(C(=O)Nc2cc(-c3ccc(NC(=O)c4ccccc4Cl)cc3)nn2C)CC1` [SW394877, 4-Acetyl-N-(3-(4-(2-chlorobenzamido)phenyl)-1-methyl-1H-pyrazol-5-yl)piperazine-1-carb-oxamide], for which, for the setting “wild type HCT116”, the “HCT116 IC50 (uM) HCT116 WT” value was “inactive”.

With `COC(=O)c1cccc(C(=O)Nc2cc(-c3ccc(NC(=O)c4ccccc4Cl)cc3)nn2C)c1` [SW394878, Methyl 3-((3-(4-(2-chlorobenzamido)phenyl)-1-methyl-1H-pyrazol-5-yl)carbamoyl)benzoate], under setting [1], the IC50 stood at 0.01 µM.

As for `Cc1ncccc1C(=O)Nc1ccc(-c2cc(N(C)C(=O)c3ccccc3)n(C)n2)cc1` [SW394880-1, 2-methyl-N-(4-(1-methyl-5-(N-methylbenzamido)-1H-pyrazol-3-yl)phenyl)nicotinamide], the IC50 under setting [1] turned out to be 1.04 µM.

Turning to `Cn1nc(-c2ccc(NC(=O)N3CCCCC3)cc2)cc1NC(=O)c1ccccc1` [SW394891-1, N-(4-(5-benzamido-1-methyl-1H-pyrazol-3-yl)phenyl)piperidine-1-carboxamide], where the note is “wild type HCT116”, the IC50 turned out to be 0.24 µM.

With `Cn1nc(-c2ccc(NC(=O)N3CCOCC3)cc2)cc1NC(=O)c1ccccc1` [SW394892-1, N-(4-(5-benzamido-1-methyl-1H-pyrazol-3-yl)phenyl)morpholine-4-carboxamide], under setting [1], the IC50 is over 5 µM.

In the case of `Cn1nc(-c2ccc(NC(=O)N3CCCC3)cc2)cc1NC(=O)c1ccccc1` [SW394893-1, N-(4-(5-benzamido-1-methyl-1H-pyrazol-3-yl)phenyl)pyrrolidine-1-carboxamide], the IC50 under setting [1] was over 5 µM.

For `CC(=O)Nc1cccc(C(=O)Nc2cc(-c3ccc(NC(=O)c4ccccc4Cl)cc3)nn2C)c1` [SW394894-1, N-(4-(5-(3-acetamidobenzamido)-1-methyl-1H-pyrazol-3-yl)phenyl)-2-chlorobenzamide], the IC50 under setting [1] amounted to 0.01 µM.

As to `Cn1nc(-c2ccc(NC(=O)c3ccccc3Cl)cc2)cc1NC(=O)c1cccc(NS(C)(=O)=O)c1` [SW394895-1, 2-chloro-N-(4-(1-methyl-5-(3-(methylsulfonamido)benzamido)-1H-pyrazol-3-yl)phenyl)benzamide], the IC50 under setting [1] stood at 0.03 µM.

As for `Cn1nc(-c2ccc(NC(=O)c3ccccc3Cl)cc2)cc1NC(=O)c1cccc(CNC(=O)OC(C)(C)C)c1` [SW394896-1, tert-butyl (3-((3-(4-(2-chlorobenzamido)phenyl)-1-methyl-1H-pyrazol-5-yl)carbamoyl)benzyl)carbamate], the IC50 under setting [1] was 0.05 µM.

Consider `Cn1nc(-c2ccc(NC(=O)c3ccccc3Cl)cc2)cc1NC(=O)c1cccc(NC(=O)OC(C)(C)C)c1` [SW394897-1, tert-butyl (3-((3-(4-(2-chlorobenzamido)phenyl)-1-methyl-1H-pyrazol-5-yl)carbamoyl)phenyl)carbamate], for which, under setting [1], the IC50 stood at 0.02 µM.

For the molecule `Cn1nc(-c2ccc(NC(=O)c3ccccc3Cl)cc2)cc1NC(=O)c1cccc(CN)c1` [SW394966, N-(4-(5-(3-(aminomethyl)benzamido)-1-methyl-1H-pyrazol-3-yl)phenyl)-2-chlorobenzamide], the IC50 under setting [1] is 0.055 µM.

On to `Cn1nc(-c2ccc(NC(=O)c3cc(NC(=O)OC(C)(C)C)ccc3Cl)cc2)cc1NC(=O)c1ccccc1` [SW394967, tert-butyl (3-((4-(5-benzamido-1-methyl-1H-pyrazol-3-yl)phenyl)carbamoyl)-4-chlorophenyl)carbamate], for which the IC50 under setting [1] was 0.541 µM.

Consider `Cn1nc(-c2ccc(NC(=O)c3ccccc3Cl)cc2)cc1NC(=O)c1cccc(OCCNC(=O)OC(C)(C)C)c1` [SW394968, tert-butyl (2-(3-((3-(4-(2-chlorobenzamido)phenyl)-1-methyl-1H-pyrazol-5-yl)carbamoyl)phenoxy)ethyl)carbamate], for which, under setting [1], the IC50 was found to be 0.062 µM.

In the case of `Cn1nc(-c2ccc(NC(=O)c3ccccc3Cl)cc2)cc1NC(=O)C1CC2CCC1CC2` (centres unmarked) [SW394969, N-(3-(4-(2-chlorobenzamido)phenyl)-1-methyl-1H-pyrazol-5-yl)bicyclo[2.2.2]octane-2-carboxamide], the IC50 under setting [1] turned out to be 0.03 µM.

On to `Cn1nc(-c2ccc(NC(=O)c3ccccc3Cl)cc2)cc1NC(=O)c1cccc(OCCN)c1` [SW394970, N-(4-(5-(3-(2-aminoethoxy)benzamido)-1-methyl-1H-pyrazol-3-yl)phenyl)-2-chlorobenzamide], for which the half-inhibitory concentration (IC50) under setting [1] was found to be 0.05 µM.

As for `Cn1nc(-c2ccc(NC(=O)c3ccccc3Cl)cc2)cc1NC(=O)c1cccc(OCCNc2ccc([N+](=O)[O-])c3nonc23)c1` [SW394971, 2-Chloro-N-(4-(1-methyl-5-(3-(2-((7-nitrobenzo[c][1,2,5]oxadiazol-4-yl)amino)ethoxy)benz-amido)-1H-pyrazol-3-yl)phenyl)benzamide], the IC50 under setting [1] was 0.02 µM.

Take `Cn1nc(-c2ccc(NC(=O)c3ccccc3Cl)cc2)cc1NC(=O)c1cccc(OCCNC(=S)Nc2ccc(-c3c4ccc(=O)cc-4oc4cc(O)ccc34)c(C(=O)O)c2)c1` [SW394972, 5-(3-(2-(3-((3-(4-(2-chlorobenzamido)phenyl)-1-methyl-1H-pyrazol-5-yl)carbamoyl)phenoxy)ethyl)thioureido)-2-(6-hydroxy-3-oxo-3H-xanthen-9-yl)benzoic acid]: the IC50 under setting [1] came to 1.3 µM.
